Results taken from patent US8658202B2, “Coated drug delivery formulations” (Western University of Health Sciences, priority 2001, dated 2014).
Like-named read-outs stand apart in the source and are kept apart here. Marks after values point to notes of the source that are not given here.

Columns and labels:
[1] = Pharmacokinetics of halofantrine enantiomers after oral gavage of proliposomal or control suspension; type: in vivo, Sprague-Dawley rats; settings: 7 mg/kg oral gavage, rats; for AUC: AUC0-24, mean±SD; for Cmax / Tmax: mean±SD
Experimental: The pharmacokinetic parameters of the enteric coated proliposomal formulation of halofantrine were evaluated as follows. The proliposomal product was prepared as a suspension in 0.78% methylcellulose. A non-liposomal suspension formulation (control) was prepared by dispersing halofantrine powder in 1% methylcellulose. Sprague-Dawley rats were cannulated at the right jugular vein under halothane anesthesia. After an overnight rest, the rats were given 7 mg/kg of a halofantrine suspension as either the proliposomal (7 rats) or control (6 rats) formulation by oral gavage. Serial blood samples were obtained from the cannula until 48 h post-dose. A stereospecific HPLC assay was used to measure plasma concentration of halofantrine enantiomers. Noncompartmental pharmacokinetic methods were used to determine AUC0-24, Cmax and tmax. Student's unpaired t-test was used to assess significance of differences.

[2] = Comparison of preparation methods: absorbance in the aqueous phase (incorporation with the lipid); type: physicochemical
From the text: (§1) One embodiment of the present invention was compared to a control method for producing pharmaceutical formulations. The control method used in the following examples is disclosed by Ganter in U.S. Pat. No. 5,635,206, herein incorporated by reference, at Example 1, except that the percentage of water used was 5% and 0%. To exemplar drugs which are poorly water soluble were used: glyburide and benzocaine.
(§2) The following tables summarize the protocol used and the results.
Some embodiments of the present invention have one or more of the aforementioned advantages.

[3] = Comparison of preparation methods: texture of product; type: physicochemical; settings: 12% drug, 63% lecithin (DMPC)
From the text: as §1, §2

[4] = Comparison of preparation methods: particle size; type: physicochemical
From the text: as §1, §2

[5] = Control: halofantrine powder in 1% methylcellulose
[6] = Liposome: enteric coated proliposomal formulation

Structure (SMILES)	Absorbance ([2]; Applicant's Method)	Absorbance ([2]; Control Method With 0% Water)	Absorbance ([2]; Control Method With 5% Water)	Texture ([3]; Applicant's Method)	Texture ([3]; Control Method With 0% Water)	Texture ([3]; Control Method With 5% Water)	Particle Size ([4]; Applicant's Method) [μm]	Particle Size ([4]; Control Method With 0% Water) [μm]	Particle Size ([4]; Control Method With 5% Water) [μm]	further results
CCCCN(CCCC)CCC(O)c1cc2c(Cl)cc(Cl)cc2c2cc(C(F)(F)F)ccc12 (single isomer, unassigned; (-)) [(−)-HF, halofantrine]	–	–	–	–	–	–	–	–	–	AUC ([1]; Sprague-Dawley, rat, plasma, po, 7 mg/kg, Control: halofantrine powder in 1% methylcellulose, read-out: AUC): 1900 ± 530 ng·h/mL; Cmax ([1]; Sprague-Dawley, rat, plasma, po, 7 mg/kg, Control: halofantrine powder in 1% methylcellulose, read-out: Cmax): 196 ± 42.3 ng/mL; Tmax ([1]; Sprague-Dawley, rat, plasma, po, 7 mg/kg, Control: halofantrine powder in 1% methylcellulose, read-out: Tmax): 4.6 ± 2.1 h; AUC ([1]; Sprague-Dawley, rat, plasma, po, 7 mg/kg, Liposome: enteric coated proliposomal formulation in 0.78% methylcellulose, read-out: AUC): 2600 ± 660 ng·h/mL; Cmax ([1]; Sprague-Dawley, rat, plasma, po, 7 mg/kg, Liposome: enteric coated proliposomal formulation, read-out: Cmax): 360 ± 80.5 ng/mL; Tmax ([1]; Sprague-Dawley, rat, plasma, po, 7 mg/kg, Liposome: enteric coated proliposomal formulation, read-out: Tmax): 4 ± 1.3 h
CCOC(=O)c1ccc(N)cc1 [Benzocaine, benzocaine]	3.7377	3.6130	3.6030	Powder	Clear Solution	Clear Solution	9.163	3.830	1.190	–
COc1ccc(Cl)cc1C(=O)NCCc1ccc(S(=O)(=O)NC(=O)NC2CCCCC2)cc1 [Glyburide, glyburide]	1.9446	3.9141	3.8177	Powder	Milky	Milky	8.638	5.978	2.544	–
CCCCN(CCCC)CCC(O)c1cc2c(Cl)cc(Cl)cc2c2cc(C(F)(F)F)ccc12 (single isomer, unassigned; (+)) [(+)-HF, halofantrine]	–	–	–	–	–	–	–	–	–	AUC [1, 5]: 5.2 ± 0.81^b μg × h/mL; Cmax [1, 5]: 391 ± 59.2^b ng/mL; Tmax [1, 5]: 7.0 ± 2.3 h; AUC ([1]; Liposome: enteric coated proliposomal formulation in 0.78% methylcellulose): 7.7 ± 1.8^a,b μg × h/mL; Cmax [1, 6]: 722 ± 170^a,b ng/mL; Tmax [1, 6]: 4.1 ± 2.3 h
